“Also recorded” adds a separate entry of the source. Where two headings read alike, the source gives them in different places.
How the values were obtained:
Type in all cases: cell-based, human
[1] = test system: HLA-A*24:02-expressing target cells (TISI cells)
TISI cells = test system: TISI cells
[2] = test system: HLA-A*02:01-expressing target cells (T2 cells)
[3] = test system: HLA-A*24:02-expressing target cells (TISI cells); remark: listed apart in the source
[4] = test system: CD8-positive T cells in PBMCs of individuals not infected with SARS-CoV-2 (HLA-A*24:02-positive)
[5] = test system: HLA-A*02:01-expressing target cells (T2 cells); remark: listed apart in the source
[6] = test system: CD8-positive T cells in PBMCs of individuals who had recovered from COVID-19 (HLA-A*24:02-positive)
[7] = HLA-A*24:02-restricted CTL lines, peptide-pulsed TISI cells
[8] = CTL clones from limiting dilution, TISI target cells
[9] = HLA-A*02:01-restricted CTL lines, peptide-pulsed T2 cells
[10] = HLA-A*24:02-restricted, peptide-pulsed TISI cells vs TISI cells not pulsed
[11] = HLA-A*02:01-restricted, peptide-pulsed T2 cells vs T2 cells not pulsed

| Sequence | IFN-γ production by CTL lines (ELISA) [1, 7] | Peptide-specific IFN-γ production by CTL clones (ELISA) (TISI cells; [8]) | Peptide-specific IFN-γ production (ELISPOT) [3, 10] | Peptide-specific IFN-γ production (ELISPOT) [5, 11] | Detection of tetramer-positive CD8-positive T cells recognizing the peptide [6] | also measured |
| --- | --- | --- | --- | --- | --- | --- |
| AYANSVFNI [Peptide 1] | produced IFN-γ in a peptide-specific manner | showed IFN-γ production specific to | peptide-specific IFN-γ production was observed | peptide-specific IFN-γ production was observed | – | IFN-γ production by CTL lines (ELISA) [2, 9]: produced IFN-γ in a peptide-specific manner; Detection of tetramer-positive CD8-positive T cells recognizing the peptide [4]: detected |
| FTYASALWEI (an amino acid sequence derived from ORF1ab polyprotein of SARS-CoV-2) [Peptide 10, SARS-CoV-2 ORF1ab-derived 10mer peptide, position 4089] | produced IFN-γ in a peptide-specific manner | showed IFN-γ production specific to | peptide-specific IFN-γ production was observed | – | detected | – |
| LWLLWPVTL [Peptide 13] | – | – | – | – | detected | IFN-γ production by CTL lines (ELISA) [1]: produced IFN-γ in a peptide-specific manner; IFN-γ production by CTL lines (ELISA) [2]: produced IFN-γ in a peptide-specific manner; Peptide-specific IFN-γ production (ELISPOT) [3]: peptide-specific IFN-γ production was observed; Detection of tetramer-positive CD8-positive T cells recognizing the peptide [4]: detected; Peptide-specific IFN-γ production (ELISPOT) [5]: peptide-specific IFN-γ production was observed |
| PFAMQMAYRF (an amino acid sequence derived from surface glycoprotein of SARS-CoV-2) [Peptide 5, SARS-CoV-2 S protein-derived 10mer peptide, position 897] | produced IFN-γ in a peptide-specific manner | – | peptide-specific IFN-γ production was observed | no peptide-specific IFN-γ production was observed | detected | – |
| RYFKYWDQTY [Peptide 12] | – | – | peptide-specific IFN-γ production was observed | peptide-specific IFN-γ production was observed | – | – |
| RYKLEGYAF [Peptide 9] | – | – | – | – | detected | IFN-γ production by CTL lines (ELISA) [1]: produced IFN-γ in a peptide-specific manner; Peptide-specific IFN-γ production by CTL clones (ELISA) (TISI cells): showed IFN-γ production specific to; Peptide-specific IFN-γ production (ELISPOT) [3]: peptide-specific IFN-γ production was observed; Peptide-specific IFN-γ production (ELISPOT) [5]: no peptide-specific IFN-γ production was observed |
| SYSLFDMSKF [Peptide 11] | – | – | peptide-specific IFN-γ production was observed | no peptide-specific IFN-γ production was observed | – | – |
| TAYANSVFNI (an amino acid sequence derived from ORF1ab polyprotein of SARS-CoV-2) [Peptide 2, SARS-CoV-2 ORF1ab-derived 10mer peptide, position 5079] | produced IFN-γ in a peptide-specific manner | showed IFN-γ production specific to | peptide-specific IFN-γ production was observed | peptide-specific IFN-γ production was observed | – | IFN-γ production by CTL lines (ELISA) [2, 9]: produced IFN-γ in a peptide-specific manner |
| TYASALWEI [Peptide 4] | – | – | – | – | detected | IFN-γ production by CTL lines (ELISA) [1]: produced IFN-γ in a peptide-specific manner; Peptide-specific IFN-γ production (ELISPOT) [3]: peptide-specific IFN-γ production was observed; Peptide-specific IFN-γ production (ELISPOT) [5]: peptide-specific IFN-γ production was observed |
| VFMSEAKCW (an amino acid sequence derived from ORF1ab polyprotein of SARS-CoV-2) [Peptide 3, SARS-CoV-2 ORF1ab-derived 9mer peptide, position 5184] | – | – | peptide-specific IFN-γ production was observed | no peptide-specific IFN-γ production was observed | – | – |
| YAYLRKHFSM (an amino acid sequence derived from ORF1ab polyprotein of SARS-CoV-2) [Peptide 15, SARS-CoV-2 ORF1ab-derived 10mer peptide, position 5138] | – | – | peptide-specific IFN-γ production was observed | no peptide-specific IFN-γ production was observed | – | – |
| YDYLVSTQEF (an amino acid sequence derived from ORF1ab polyprotein of SARS-CoV-2) [Peptide 6, SARS-CoV-2 ORF1ab-derived 10mer peptide, position 3811] | – | – | peptide-specific IFN-γ production was not found; also recorded: no peptide-specific IFN-γ production was observed | – | – | – |
| YYSQLMCQPI (an amino acid sequence derived from ORF1ab polyprotein of SARS-CoV-2) [Peptide 7, SARS-CoV-2 ORF1ab-derived 10mer peptide, position 2560] | produced IFN-γ in a peptide-specific manner | showed IFN-γ production specific to | peptide-specific IFN-γ production was observed | peptide-specific IFN-γ production was observed | – | Detection of tetramer-positive CD8-positive T cells recognizing the peptide [4]: detected |
